Assay results taken from patent US6586183B2, “Association of β2-adrenergic receptor haplotypes with drug response” (Genaissance Pharmaceuticals, Inc., priority 2000, dated 2003).

Test system: asthma patients
Test: Bronchodilator response (spirometry, FEV1) of asthma patients to inhaled albuterol, by β2AR haplotype pair
Assay type: in vivo, human
Experimental: The patients in the asthma cohort were enrolled from an outpatient facility as described in detail elsewhere (Yan, L., Galinsky, R. E., Bernstein, J. A., Liggett, S. B. & Weinshilboum, R. M. (1999) Pharmacogenetics in Press). […] Forced expiratory volume in 1 second (FEV1) and forced vital capacity (FVC) were determined in triplicate. The predicted values for these measurements were calculated based on standard algorithms (Morris, J. F., Koski, A. & Johnson, L. C. (1971) Am Rev Respir Dis 103, 57-67).
The association between changes in % predicted FEV1 and haplotype pair was assessed by fitting an analysis of covariance model (ANCOVA) with terms for haplotype pair, sex and baseline severity. P-values from pairwise comparisons by haplotype pair were adjusted for multiple comparisons by applying the Holm-Sidak step-down procedure (Ludbrook, J. (1998) Clin and Exp Pharmacology & Physiology 25, 1032-1037.). […] In addition, the African-American asthma patients were excluded from the analysis due to the low number of individuals in this population group. For the analysis of individual SNPs, a similar ANCOVA model was employed with a discrete term for SNP genotype, and terms for sex and baseline severity. The Holm-Sidak step-down procedure was used to adjust the p-values from the individual SNP analyses for the number of tests performed.
Pairwise tests were made while correcting for multiple comparisons. […] For this analysis, a similar ANCOVA model as above was utilized. […] Since 0, 1 or 2 copies of these two haplotypes are present in our population as haplotype pairs 2/2, 2/4 and 4/4, a potential gene dose effect can be assessed by regression analysis.

## CC(C)(C)NCC(O)c1ccc(O)c(CO)c1 (stereo not drawn) [albuterol]
Asthmatic patients with haplotype pair 2/6
  bronchodilator response to albuterol: moderate bronchodilator response
Asthmatic patients with haplotype pairs 2/2 and 4/6
  bronchodilator response to albuterol: respond well
Asthmatic patients with haplotype pairs 2/4 and 4/4
  bronchodilator response to albuterol: little to no response
